Bridge positions count the residues as written; N and C are the ends. Square brackets hold non-standard residues; d marks the D form. Peptide text beside a SMILES is read from it. * marks the point of attachment. ξ: configuration not given here. Phe(3-CF3) = N[C@@H](Cc1cccc(C(F)(F)F)c1)C(=O)O; Ala(morpholin-4-yl) = N[C@@H](CN1CCOCC1)C(=O)O; Phe(4-COOH) = N[C@@H](Cc1ccc(C(=O)O)cc1)C(=O)O; Bip = N[C@@H](Cc1ccc(-c2ccccc2)cc1)C(=O)O; Phe(3-Me) = Cc1cccc(C[C@H](N)C(=O)O)c1; NH(CH2)12COOH = O=C(O)CCCCCCCCCCCCN*; Val(3-OH) = CC(C)(O)[C@H](N)C(=O)O; 4Pal = N[C@@H](Cc1ccncc1)C(=O)O; Cha = N[C@@H](CC1CCCCC1)C(=O)O; Cit = NC(=O)NCCC[C@H](N)C(=O)O; Thr(3ξ) = CC(O)[C@H](N)C(=O)O; dDab = NCC[C@@H](N)C(=O)O; Carboxymethyl = O=C(O)C*; Nle = CCCC[C@H](N)C(=O)O; Orn = NCCC[C@H](N)C(=O)O; Aun = NCCCCCCCCCCC(=O)O; Dab = NCC[C@H](N)C(=O)O; Dap = NC[C@H](N)C(=O)O; AEEA = NCCOCCOCC(=O)O
target: T1, PD-1/PD-L1 interaction (PE-labeled human PD-L1-Ig binding to Jurkat cell line over-expressing human PD-1) (Homo sapiens, UniProt Q15116); assay: Jurkat-PD-1 Cell Binding High-Content Screening Assay (CBA); type: cell-based; conditions: Jurkat cell line over-expressing human PD-1; PE-labeled PD-L1-Ig 20 nM final; read-out: Jurkat hPD1-PDL1 IC50
T1 construct: expressed in transfected cells; host or cells: Jurkat
Method in brief: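 Jurkat cells stably over-expressing human PD-1 were seeded in DMEM with 10% fetal calf serum and pre-incubated with compound for 2 h at 37° C. PE-labeled human PD-L1-Ig was then added at 20 nM final for 1 hour, after which cells were fixed with paraformaldehyde, Hoechst-stained and imaged by high-content microscopy.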

T1 sequence (Q15116 25-288): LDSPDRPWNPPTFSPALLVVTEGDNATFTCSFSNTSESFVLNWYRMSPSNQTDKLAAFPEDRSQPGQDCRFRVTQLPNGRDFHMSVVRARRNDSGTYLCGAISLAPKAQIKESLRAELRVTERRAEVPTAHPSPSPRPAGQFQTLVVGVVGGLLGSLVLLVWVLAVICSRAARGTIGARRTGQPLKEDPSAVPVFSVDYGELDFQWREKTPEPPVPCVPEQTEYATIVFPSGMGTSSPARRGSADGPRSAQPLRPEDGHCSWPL

| IC50 [nM] | SMILES |
| --- | --- |
| 19.2 | CCCC[C@@H]1NC(=O)CSC[C@@H](C(=O)N[C@@H](CCN)C(=O)NCCOCCOCC(=O)NCCOCCOCC(=O)NCCCCCCCCCCCCC(=O)O)NC(=O)[C@H](CO)NC(=O)[C@H](C(C)(C)O)NC(=O)[C@H](CC2CCCCC2)NC(=O)[C@H](CCN)NC(=O)[C@@H](CC(C)C)NC(=O)[C@H](CCCN)NC(=O)[C@H](Cc2ccc(OCC(=O)O)cc2)NC(=O)[C@H](Cc2ccc(-c3ccccc3)cc2)NC(=O)[C@H](Cc2ccc(OCC(=O)O)cc2)NC(=O)[C@H](Cc2cccc(C(F)(F)F)c2)NC(=O)[C@H](CC(=O)O)NC(=O)[C@H](Cc2ccc(OCC(=O)O)cc2)NC1=O [Compound 3829] ({CH2CO}-[Nle]Y(Carboxymethyl)D[Phe(3-CF3)]Y(Carboxymethyl)[Bip]Y(Carboxymethyl)[Orn][dL][Dab][Cha][Val(3-OH)]SC[Dab][AEEA][AEEA]-{NH(CH2)12COOH}; thioether N-14) |
| 5.7 | CC(C)C[C@H]1NC(=O)[C@H](CCCN)NC(=O)[C@H](C(C)C)NC(=O)[C@H](Cc2ccc(-c3ccccc3)cc2)NC(=O)[C@H](C(C)C)NC(=O)[C@H](Cc2c[nH]c3ccccc23)NC(=O)[C@H](CC(=O)O)NC(=O)[C@H](Cc2ccc(OCC(=O)O)cc2)NC(=O)[C@H](Cc2ccncc2)NC(=O)CSC[C@@H](C(=O)NCC(=O)NCCOCCOCC(=O)N[C@@H](CCCN)C(=O)NCCCCCCCCCCC(=O)O)NC(=O)[C@H](CCCNC(N)=O)NC(=O)[C@H](C(C)C)NC(=O)[C@H](CC2CCCCC2)NC(=O)[C@H](CCN)NC1=O [Compound 3235] ({CH2CO}-[4Pal]Y(Carboxymethyl)DWV[Bip]V[Orn][dL][Dab][Cha]V[Cit]CG[AEEA][Orn][Aun]-OH; thioether N-14) |
| 6.7 | Cc1cccc(C[C@@H]2NC(=O)[C@H](CC(=O)O)NC(=O)[C@H](Cc3ccc(OCC(=O)O)cc3)NC(=O)[C@H](CCCNC(=N)N)NC(=O)CSC[C@@H](C(=O)N[C@@H](CCCN)C(=O)NCCCCCCCCCCC(=O)O)NC(=O)[C@H](CCC(=O)O)NC(=O)[C@H](C(C)C)NC(=O)[C@H](CC3CCCCC3)NC(=O)[C@H](CCN)NC(=O)[C@@H](CC(C)C)NC(=O)[C@H](CCN)NC(=O)[C@H](CCCNC(N)=O)NC(=O)[C@H](Cc3ccc(-c4ccccc4)cc3)NC(=O)[C@H](C(C)C)NC2=O)c1 [Compound 2780] ({CH2CO}-RY(Carboxymethyl)D[Phe(3-Me)]V[Bip][Cit][Dab][dL][Dab][Cha]VEC[Orn][Aun]-OH; thioether N-14) |
| 5.5 | Cc1cccc(C[C@@H]2NC(=O)[C@H](CC(=O)O)NC(=O)[C@H](Cc3ccc(OCC(=O)O)cc3)NC(=O)[C@H](CN3CCOCC3)NC(=O)CSC[C@@H](C(=O)N[C@@H](CCN)C(=O)NCCOCCOCC(=O)NCCOCCOCC(=O)NCCCCCCCCCCCCC(=O)O)NC(=O)[C@H](CCC(=O)O)NC(=O)[C@H](C(C)(C)O)NC(=O)[C@H](CC3CCCCC3)NC(=O)[C@H](CCN)NC(=O)[C@@H](CC(C)C)NC(=O)[C@H](CCCN)NC(=O)[C@H](Cc3ccc(C(=O)O)cc3)NC(=O)[C@H](Cc3ccc(-c4ccccc4)cc3)NC(=O)[C@H](Cc3ccc(C(=O)O)cc3)NC2=O)c1 [Compound 2898] ({CH2CO}-[Ala(morpholin-4-yl)]Y(Carboxymethyl)D[Phe(3-Me)][Phe(4-COOH)][Bip][Phe(4-COOH)][Orn][dL][Dab][Cha][Val(3-OH)]EC[Dab][AEEA][AEEA]-{NH(CH2)12COOH}; thioether N-14) |
| 12.3 | Cc1cccc(C[C@@H]2NC(=O)[C@H](CC(=O)O)NC(=O)[C@H](Cc3ccc(OCC(=O)O)cc3)NC(=O)[C@H](CC(N)=O)NC(=O)CSC[C@@H](C(=O)NCCCCCCCCCCC(=O)O)NC(=O)[C@H](CCC(=O)O)NC(=O)[C@H](C(C)C)NC(=O)[C@H](CC3CCCCC3)NC(=O)[C@H](CCN)NC(=O)[C@@H](CC(C)C)NC(=O)[C@H](CCCN)NC(=O)[C@H](Cc3ccc(O)cc3)NC(=O)[C@H](Cc3ccc(-c4ccccc4)cc3)NC(=O)[C@H](C(C)C)NC2=O)c1 [Compound 3375] ({CH2CO}-NY(Carboxymethyl)D[Phe(3-Me)]V[Bip]Y[Orn][dL][Dab][Cha]VEC[Aun]-OH; thioether N-14) |
| 14.2 | Cc1cccc(C[C@@H]2NC(=O)[C@H](CC(=O)O)NC(=O)[C@H](Cc3ccc(OCC(=O)O)cc3)NC(=O)[C@H](CN)NC(=O)CSC[C@@H](C(=O)N[C@@H](CCN)C(=O)NCCCCCCCCCCC(=O)O)NC(=O)[C@H](CCCN)NC(=O)[C@H](C(C)C)NC(=O)[C@H](CC3CCCCC3)NC(=O)[C@H](CCN)NC(=O)[C@@H](CC(C)C)NC(=O)[C@H](CCCN)NC(=O)[C@H](CCCNC(N)=O)NC(=O)[C@H](Cc3ccc(-c4ccccc4)cc3)NC(=O)[C@H](C(C)C)NC2=O)c1 [Compound 2845] ({CH2CO}-[Dap]Y(Carboxymethyl)D[Phe(3-Me)]V[Bip][Cit][Orn][dL][Dab][Cha]V[Orn]C[Dab][Aun]-OH; thioether N-14) |
| 21.8 | Cc1cccc(C[C@@H]2NC(=O)[C@H](CC(=O)O)NC(=O)[C@H](Cc3ccc(C(=O)O)cc3)NC(=O)[C@H](CN)NC(=O)CSC[C@@H](C(=O)N[C@@H](CCN)C(=O)NCCCCCCCCCCC(=O)O)NC(=O)[C@H]([C@@H](C)O)NC(=O)[C@H](C(C)C)NC(=O)[C@H](CC3CCCCC3)NC(=O)[C@H](CCN)NC(=O)[C@@H](CC(C)C)NC(=O)[C@H](CCCN)NC(=O)[C@H](Cc3ccc(OCC(=O)O)cc3)NC(=O)[C@H](Cc3ccc(-c4ccccc4)cc3)NC(=O)[C@H](Cc3ccc(OCC(=O)O)cc3)NC2=O)c1 [Compound 2165] ({CH2CO}-[Dap][Phe(4-COOH)]D[Phe(3-Me)]Y(Carboxymethyl)[Bip]Y(Carboxymethyl)[Orn][dL][Dab][Cha]VTC[Dab][Aun]-OH; thioether N-14) |
| 8.7 | Cc1cccc(C[C@@H]2NC(=O)[C@H](CC(=O)O)NC(=O)[C@H](Cc3ccc(OCC(=O)O)cc3)NC(=O)[C@H](CCN)NC(=O)CSC[C@@H](C(=O)N[C@@H](CCN)C(=O)NCCCCCCCCCCC(=O)O)NC(=O)[C@H](CO)NC(=O)[C@H](Cc3cnc[nH]3)NC(=O)[C@H](CC3CCCCC3)NC(=O)[C@H](CCN)NC(=O)[C@@H](CC(C)C)NC(=O)[C@H](CCCN)NC(=O)[C@H](Cc3ccc(OCC(=O)O)cc3)NC(=O)[C@H](Cc3ccc(-c4ccccc4)cc3)NC(=O)[C@H](Cc3ccc(OCC(=O)O)cc3)NC2=O)c1 [Compound 3632] ({CH2CO}-[Dab]Y(Carboxymethyl)D[Phe(3-Me)]Y(Carboxymethyl)[Bip]Y(Carboxymethyl)[Orn][dL][Dab][Cha]HSC[Dab][Aun]-OH; thioether N-14) |
| 15.2 | Cc1cccc(C[C@@H]2NC(=O)[C@H](CC(=O)O)NC(=O)[C@H](Cc3ccc(OCC(=O)O)cc3)NC(=O)[C@H](C(C)O)NC(=O)CSC[C@@H](C(=O)N[C@@H](CCN)C(=O)NCCCCCCCCCCCCC(=O)O)NC(=O)[C@H](CO)NC(=O)[C@H](C(C)(C)O)NC(=O)[C@H](CC3CCCCC3)NC(=O)[C@H](CCN)NC(=O)[C@@H](CC(C)C)NC(=O)[C@H](CCCN)NC(=O)[C@H](Cc3ccc(OCC(=O)O)cc3)NC(=O)[C@H](Cc3ccc(-c4ccccc4)cc3)NC(=O)[C@H](Cc3ccc(OCC(=O)O)cc3)NC2=O)c1 (stereo partly drawn) [Compound 3844] ({CH2CO}-[Thr(3ξ)]Y(Carboxymethyl)D[Phe(3-Me)]Y(Carboxymethyl)[Bip]Y(Carboxymethyl)[Orn][dL][Dab][Cha][Val(3-OH)]SC[Dab]-{NH(CH2)12COOH}; thioether N-14) |
| 8.2 | CC(C)C[C@H]1NC(=O)[C@H](CCCN)NC(=O)[C@H](Cc2ccc(O)cc2)NC(=O)[C@H](Cc2ccc(-c3ccccc3)cc2)NC(=O)[C@H](C(C)C)NC(=O)[C@H](Cc2c[nH]c3ccccc23)NC(=O)[C@H](CC(=O)O)NC(=O)[C@H](Cc2ccc(OCC(=O)O)cc2)NC(=O)[C@H](CCCNC(=N)N)NC(=O)CSC[C@@H](C(=O)N[C@@H](CCN)C(=O)NCCCCCCCCCCC(=O)O)NC(=O)[C@H](CCC(N)=O)NC(=O)[C@H](C(C)C)NC(=O)[C@H](CC2CCCCC2)NC(=O)[C@H](CCN)NC1=O [Compound 3405] ({CH2CO}-RY(Carboxymethyl)DWV[Bip]Y[Orn][dL][Dab][Cha]VQC[Dab][Aun]-OH; thioether N-14) |
| 28.9 | CC(C)C[C@H]1NC(=O)[C@H](CCCN)NC(=O)[C@H](C(C)C)NC(=O)[C@H](Cc2ccc(-c3ccccc3)cc2)NC(=O)[C@H](C(C)C)NC(=O)[C@H](Cc2c[nH]c3ccccc23)NC(=O)[C@H](CC(=O)O)NC(=O)[C@H](Cc2ccc(OCC(=O)O)cc2)NC(=O)[C@H](CN)NC(=O)CSC[C@@H](C(=O)NCCOCCOCC(=O)N[C@H](CO)C(=O)NCCCCCCCCCCC(=O)O)NC(=O)[C@H]([C@@H](C)O)NC(=O)[C@H](C(C)C)NC(=O)[C@H](CC2CCCCC2)NC(=O)[C@H](Cc2cnc[nH]2)NC1=O [Compound 1134] ({CH2CO}-[Dap]Y(Carboxymethyl)DWV[Bip]V[Orn][dL]H[Cha]VTC[AEEA][dS][Aun]-OH; thioether N-14) |
| 29.8 | CC(=O)NCCCC[C@@H]1NC(=O)[C@H](Cc2ccc(-c3ccccc3)cc2)NC(=O)[C@H](C(C)C)NC(=O)[C@H](Cc2cccc(C)c2)NC(=O)[C@H](CC(=O)O)NC(=O)[C@H](Cc2ccc(OCC(=O)O)cc2)NC(=O)[C@H](CCCNC(=N)N)NC(=O)CSC[C@@H](C(=O)N[C@H](CCN)C(=O)NCCCCCCCCCCC(=O)O)NC(=O)[C@H](C(C)O)NC(=O)[C@H](C(C)C)NC(=O)[C@H](CC2CCCCC2)NC(=O)[C@H](CCN)NC(=O)[C@@H](CC(C)C)NC(=O)[C@H](CCCN)NC1=O (stereo partly drawn) [Compound 3558] ({CH2CO}-RY(Carboxymethyl)D[Phe(3-Me)]V[Bip]K(Ac)[Orn][dL][Dab][Cha]V[Thr(3ξ)]C[dDab][Aun]-OH; thioether N-14) |
| 26 | Cc1cccc(C[C@@H]2NC(=O)[C@H](CC(=O)O)NC(=O)[C@H](Cc3ccc(OCC(=O)O)cc3)NC(=O)[C@H](CCC(N)=O)NC(=O)CSC[C@@H](C(=O)N[C@@H](CCN)C(=O)NCCCCCCCCCCC(=O)O)NC(=O)[C@H]([C@@H](C)O)NC(=O)[C@H](C(C)C)NC(=O)[C@H](CC3CCCCC3)NC(=O)[C@H](CCN)NC(=O)[C@@H](CC(C)C)NC(=O)[C@H](CCCN)NC(=O)[C@H](CCCNC(N)=O)NC(=O)[C@H](Cc3ccc(-c4ccccc4)cc3)NC(=O)[C@H](C(C)C)NC2=O)c1 [Compound 2830] ({CH2CO}-QY(Carboxymethyl)D[Phe(3-Me)]V[Bip][Cit][Orn][dL][Dab][Cha]VTC[Dab][Aun]-OH; thioether N-14) |
